Numbers after ± are expanded uncertainties.
Conditions: Crystal; DTA

Normal melting temperature: 169.00 ± 2 °C
SMILES: Cc1oncc1C(=O)Nc1ccc(C(F)(F)F)cc1

Reference: the NIST ThermoML archive (doi:10.1016/j.tca.2017.09.003)
